Test results reported in a melting point compilation (Tetko et al.; mined from patent text by program, amines drawn as free bases though some values may be those of a salt).

SMILES | melting point [°C]
O=C(O)c1cncc(-c2ccc3c(C(=O)NCC45CC6CC(CC(C6)C4)C5)c(Cl)ccc3n2)c1 | 247
O=C(O)C(F)c1cc(F)cc(F)c1 (configuration not stated) | 90 to 110
CC(=O)N1CCN(c2ccc(NS(C)(=O)=O)cc2)CC1 | 165 to 167
COc1ccc(-c2ccc3c(Br)c(OC)ccc3c2)cc1 | 172 to 174
NNC(=O)CCc1cccc(F)c1 | 109 to 110
O=CN1CCC(O)(c2ccccc2Cc2ccccc2)CC1 | 171 to 174
CCOC(=O)C(C#N)=C1CCN(c2ccc(N3C[C@H](CNC(C)=O)OC3=O)cc2F)CC1 | 165 to 169
COc1nc(-c2ccccc2)c2c(n1)N(c1c(F)cccc1F)C(=O)NC2 | 221 to 224
Cc1cc(NNC(=O)OC(C)(C)C)nnc1-c1ccc(C#N)cc1 | 169 to 171
COC(=O)c1c(C)nc2c(c1N)c1ccccc1n2Cc1ccc(OC)cc1 | 142 to 145
CCc1cc(C(F)(C(F)(F)F)C(F)(F)F)cc(C)c1NC(=O)c1cccc(N)c1 | 143 to 145
OC1OC(Cn2cncn2)(c2ccc(Cl)cc2)c2ccccc21 (configuration not stated) | 215 to 217
CCOc1nn(C(=O)NS(=O)(=O)c2c(C)csc2C(=O)OC)c(=O)n1C | 169
CCCCc1nc(C(C)(O)CC)c(C#N)[nH]1 (configuration not stated) | 139 to 142
Cc1ccc(S(=O)(=O)OC2=CC3COC(O3)C2=O)cc1 (configuration not stated) | 81 to 86
CN(C)CC(=O)Nc1cccc2c1C(=O)c1c(NC(=O)CN(C)C)cccc1C2=O | 194 to 195
CCC(=NO)C1=CCCN(Cc2ccccc2)C1 | 111 to 112
N#CC(=O)c1ccccc1CCl | 54.5 to 56.5
CCc1csc(-c2ccc3c(c2)C=C(C(=O)Nc2ccc(CN(C)C4CCOCC4)cc2)CCN3C)c1 | 139 to 141
CC(C)CCCC(C)C1CCC2C3=CC=C4CC(O)C=CC4(C)C3CCC21C (configuration not stated) | 126 to 127
c1ccc(-c2cc3nnc(-c4ccccc4)n3nc2OCc2cn[nH]n2)cc1 | 208 to 220
COc1cc(CC(C)(C)NC(=O)c2ccc(=O)n(-c3ccc4cc(C)ccc4n3)c2)cc2c1OC(C)(C)C2 | 192 to 193
CC(C)CCC(=O)N1CCN(C(=O)OC(C)(C)C)CC1 | 88 to 90.2

SMILES | melting point [°C]
CN(C)CCc1ccc(OCCCN2C(=O)c3ccccc3C2=O)cc1 | 81 to 82
O=C(/C=C/c1cccc(S(=O)(=O)N2CCN(CCc3ccc4ccccc4c3)CC2)c1)NO | 184
CCOc1nn(-c2ccc(C(F)(F)F)cc2)cc1CCCOc1cccc(CC(=O)O)c1 | 108 to 109
O=C(O)CCCc1cc2cc(Cl)ccc2n1S(=O)(=O)c1ccc2c(c1)CCO2 | 174 to 179
Cc1nc2c(OCc3ccccc3)cc(Br)cc2n1C | 177 to 179
COc1c(C(=O)Nc2ccc(-n3nc(C(F)(F)F)cc3C(F)(F)F)cc2)csc1Cl | 119 to 120
Cn1c(CC#N)ccc1C(=O)c1cccc(Cl)c1 | 122 to 127
CC[C@H](C)OC(=O)COc1ccc(C(=O)[C@H](COC(C)(C)C)NC(=O)c2ccc(C(=N)NC(=O)OC(C)(C)C)cc2)cc1 | 85 to 87
CN(C)C(=O)COc1ccc(-c2ccc(C3COC(c4c(F)cccc4F)=N3)cc2)cc1 (configuration not stated) | 78 to 80
CC(C)(C)NS(=O)(=O)c1cn(CCOC2CCCCO2)c2ccccc12 (configuration not stated) | 125 to 132
CC(=O)c1ccc(NC(=O)NN2CC=CCC2)cc1 | 142 to 143
Nc1nc2ccccc2c(=O)[nH]1 | > 300
CC(SC(=O)c1ccccc1)C(=O)NC(Cc1ccccc1)C(=O)O (configuration not stated) | 173 to 175
O=c1c2ccccc2[nH]c2ccc(O)c(Cl)c12 | 184 to 191
C=C1C(=O)OC2C1CCC(CO)=CCCC1(C)OC21 (configuration not stated) | 172 to 176
COC(=O)c1ccc(Cc2cc3cc(Cl)ccc3n2S(=O)(=O)N2CCCCC2)cc1 | 133
OCCNc1nc(NCc2ccccc2)c2ncc(Cl)cc2n1 | 106 to 107
CC1SC(c2cccnc2)N(C)C1=O (configuration not stated) | 66.5 to 68.5
O=C(O)C1CCc2c([nH]c3ccc(F)cc23)C1 (configuration not stated) | > 200
O=[N+]([O-])c1cc(OCc2ccccc2)cc(C2CO2)c1 (configuration not stated) | 54 to 55
CCC1(CC)NC(C)(COC(=O)C(C)(C)C)COC1=O (configuration not stated) | 51 to 53
Cc1cc(Oc2ccccc2)c(S(C)(=O)=O)cc1C(=O)N=C(N)N | 248 to 250
Cc1oc(-c2ccccc2)nc1CCOc1ccc(CC2SC(=O)NC2=O)cc1 (configuration not stated) | 113 to 114

Next, values leading:

melting point [°C] | SMILES
> 300 | O=c1[nH]c(S)ncc1O
81 to 82 | CSC1Oc2ccccc2C1=O (configuration not stated)
211 | CC(CC(=O)NCCc1ccc(C(=O)O)cc1)(c1ccccc1)c1ccccc1
125 to 127 | O=C1CCCc2onc(-c3ccccc3[N+](=O)[O-])c21
298 to 300 | CC1(N)CN(c2c(F)cc3c(=O)c(C(=O)O)cn(C4CC4)c3c2F)C1
132 to 134 | COc1ccc([C@H]2NC(SC)=N[C@H]2c2ccc(OC)cc2)cc1
117 to 119 | COc1cc2c(cc1O)CCCC2=O
288 to 290 | O=C(O)c1cn(C2CC2)c2cc(F)c(F)cc2c1=O
242 to 245 | OC1(C2=NCCCN2)c2ccccc2-c2ccccc21
59 to 60 | CCCCC(=O)Nc1c(C(=O)OC)cc(C)cc1[N+](=O)[O-]
92 to 94 | CCCCOc1c(-c2cc(C=CC(=O)O)ccc2O)cc(C(C)(C)C)cc1C(C)(C)C
77 to 78 | Cc1nc(Cl)sc1C=O
130 to 132 | Nc1cccc(S(=O)(=O)NC2(CO)CCCC2)c1
223 | c1ccc2sc3cc4oc5ccccc5sc4cc3oc2c1
114 to 115 | CN(O)C(=O)Nc1ccc(Cl)c(C(F)(F)F)c1
143 to 144 | O=C1OCCC12Sc1ccc(Cl)cc1C2=O (configuration not stated)
69 to 72 | CC(C)(C)C(=O)n1c(=O)n(CCN2CCC(=C(c3ccc(F)cc3)c3ccc(F)cc3)CC2)c(=O)c2cscc21
42 to 43 | CCC(C)S(=O)(=O)c1snc(OC(F)F)c1C#N (configuration not stated)
105 | CC(C)(O)c1onc(-c2ccccc2Cl)c1C(=O)c1nnn(Cc2cc(C(F)(F)F)cc(C(F)(F)F)c2)c1-c1cccnc1

melting point [°C] | SMILES
199 to 204 | CSc1ncc2cc(Oc3ccc(F)cc3F)c(NS(C)(=O)=O)nc2n1
138 to 144 | CCS(=O)c1ccc(Oc2ccc(Cl)c(Cl)c2)nc1C#N (configuration not stated)
184 to 186 | O=C(Nc1cc(OCCCO/N=C/c2cc(C(F)(F)F)cc(C(F)(F)F)c2)ccc1C(=O)O)c1ccc(OC(F)(F)F)cc1
193 to 195 | COc1ccc2[nH]c(C)c(/C=C/C(=O)c3cccnc3)c2c1
> 260 | COc1ccc(-c2nc3c(o2)C(=O)c2ccccc2C3=O)cc1
185 to 187 | CN(C)C(=S)SCn1c(Br)c(Br)c(S(=O)(=O)C(F)(F)F)c1-c1ccc(Cl)cc1
216 | OC1CSC(Oc2cccnc2)C(O)C1O (configuration not stated)
166 to 168 | C=C(C)Cc1c(C)c2c(c(C)c1O)CC(C)(C)N2C=O
201 to 202 | COc1cc(C2CCNCC2)ccc1Nc1ncc2ccc(-c3cccc(S(=O)(=O)NC(C)(C)C)c3)n2n1
137 to 141 | CCOC(=O)C(C)c1ccc(O)c(NC(C)=O)c1 (configuration not stated)
202 to 203 | COc1cc2c(cc1OC(C)=O)C1Cc3c(Cl)cc(OC)c(OC(C)=O)c3CN1CC2 (single isomer, unassigned; (-))
55 to 56 | COc1ccc(CSC(C)(C)C2(c3ccc(F)cc3F)CO2)cc1 (configuration not stated)
167 to 168 | CCN1CCCC1CNC(=O)c1cc(NS(=O)(=O)NC(C)(C)C)c(C)cc1OC (configuration not stated)
90 | CC(C)(C1OCCO1)C(O)(Cn1cncn1)c1ccc(F)cc1 (configuration not stated)
263 | N#Cc1c(N2CCN(C(=O)c3cccs3)CC2)c2cscc2[nH]c1=O
> 300 | O=C(O)C1=Cc2cc(Cl)c(Oc3ccc(C(=O)O)cc3Cl)cc2OC1C(F)(F)F (configuration not stated)
153 to 157 | CC(COc1ccc(CC2SC(=O)N(C(c3ccccc3)(c3ccccc3)c3ccccc3)C2=O)cc1)NC(=O)OC(C)(C)C (configuration not stated)
130 to 134 | CC(C)(OCc1cc(-c2ccc(Cl)cc2)no1)C(=O)O
140 to 142 | COc1ccc(CNC2SC(=O)NC2=O)cc1 (configuration not stated)

melting point [°C] | SMILES
180 to 181 | O=C(Nc1ccccc1C(F)(F)F)c1cc(-c2ccc(F)cc2F)ccc1O
168 to 170 | O=c1cc(-c2ccc(OCc3ccccc3)c(OCc3ccccc3)c2)oc2cc(OCC3CO3)ccc12 (configuration not stated)
92 to 94 | O=C(O)CCCCCSc1ccc(O)cc1
158 to 159 | O=C(CCCCCCNC(=O)C(=O)c1cn2c3c(cccc13)CCC2)NO
114 to 118 | Cc1cc(O)c(SCc2ccc(F)cc2)c(=O)o1
107 to 110 | N#Cc1ccccc1/C=C/C=O
60.5 to 63.5 | COc1ccc(CSc2nnc(CCl)s2)cc1
144 to 146 | CON1CCC2(CC1)C(O)=C(c1c(C)cc(C)cc1C)C(=O)N2OC1CCCO1 (configuration not stated)
168 to 170 | CCOC(=O)c1cnc2nn(C)cc2c1NC(C)C
142 to 145 | Cc1nc(N2CCCN(CC3CC3)C2=O)sc1C(=O)NCc1cccnc1
206 to 208 | CC1(C)OC(=O)C(C(=O)Nc2ccc(C(F)(F)F)cc2)=C(O)O1
62 to 64 | CCCCc1oc2ccccc2c1C(=O)c1nc(Br)c(-c2ccc(OC)cc2)o1
102 | CC(C)(C)[Si](C)(C)O[C@H]1CC(=O)O[C@H](CO)C1
220 to 221 | Nc1cnc2c(c1)[nH]c(=O)n2-c1ccccc1F
124 to 126 | O=S(=O)(Cc1cccs1)c1ncc(Br)cn1
217 to 219 | O=C(O)Cc1cc(=O)n(Cc2ccc(Cl)cc2)c2ccc([N+](=O)[O-])cc12
204 | O[C@H]1COC(c2cc3ccccc3[nH]2)=N[C@@H]1c1ccccc1 (racemic)
171 to 172 | O=C(O)CC1=C(n2nc(-c3c(-c4ccccc4)nn4ccccc34)ccc2=O)CCCCC1
